Data taken from ChEMBL document CHEMBL1201862, “PubChem BioAssay data set” (2004).
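In this assay, cells in 96-well plates receive the compound at five concentrations for 48 hours. Endpoints are linearly interpolated between the surrounding concentrations. GI50 is the concentration that inhibits growth by half.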 The source made the active and inactive calls. Cut-off read from the data, not from the text of the source: active = GI50 up to about 1.1 µM and inactive = higher.

How the values were obtained:
Experiment in all cases: DTP human tumour cell line panel, 48 h
NCI-H522 = test system: NCI-H522
ACHN = test system: ACHN
NCI-H23 = test system: NCI-H23
SNB-19 = test system: SNB-19
OVCAR-8 = test system: OVCAR-8
NCI-H460 = test system: NCI-H460
M14 = test system: M14
HCT-15 = test system: HCT-15
MOLT-4 = test system: MOLT-4
HL-60 = test system: HL-60
SF-268 = test system: SF-268
SF-295 = test system: SF-295
SNB-75 = test system: SNB-75
CAKI-1 = test system: CAKI-1
OVCAR-4 = test system: OVCAR-4
HOP-92 = test system: HOP-92

Row | SMILES | GI50 (NCI-H522) | GI50 (ACHN) | GI50 (NCI-H23) | GI50 (SNB-19) | GI50 (OVCAR-8) | GI50 (NCI-H460) | GI50 (M14) | GI50 (HCT-15) | GI50 (MOLT-4) | GI50 (HL-60) | GI50 (SF-268) | GI50 (SF-295) | GI50 (SNB-75) | GI50 (CAKI-1) | GI50 (OVCAR-4) | GI50 (HOP-92)
1 | CC(C)(c1ccccc1)c1ccc(OC#N)cc1 | 15.2 µM (inactive) | 68.4 µM (inactive) | 68.9 µM (inactive) | > 78 µM (inactive) | > 100 µM (inactive) | 38.5 µM (inactive) | > 100 µM (inactive) | 15.2 µM | 35.2 µM (inactive) | 36.4 µM (inactive) | 42 µM (inactive) | 60.8 µM (inactive) | 15.2 µM (inactive) | > 95.5 µM (inactive) | 71.4 µM (inactive) | 37.3 µM (inactive)
2 | CC(=O)OC(CCC1(C)OC1COc1ccc(CCNC(=O)c2ccccc2)cc1)C(C)(C)OC(C)=O (stereo not given) | 22.9 µM (inactive) | 5 µM (inactive) | 0.302 µM (active) |  | 15.7 µM (inactive) | 13.1 µM (inactive) | 15.1 µM (inactive) | 13.9 µM | 4.19 µM (inactive) | 25.7 µM (inactive) | 74.8 µM (inactive) | 11.4 µM (inactive) | 32.6 µM (inactive) | 19 µM (inactive) | 19.7 µM (inactive) | 74.6 µM (inactive)
3 | NC(CCCNc1cccc(O)c1)C(=O)O (stereo not given) | > 100 µM (inactive) | > 100 µM (inactive) |  | > 100 µM (inactive) | > 100 µM (inactive) | > 100 µM (inactive) | > 100 µM (inactive) | > 100 µM | > 100 µM (inactive) | > 100 µM (inactive) | > 100 µM (inactive) | > 100 µM (inactive) | > 100 µM (inactive) | > 100 µM (inactive) | > 100 µM (inactive) | > 100 µM (inactive)
4 | O=c1ccn([C@@H]2C[C@H](CO)C[S+]([O-])C2)c(=O)[nH]1 (stereo not given in full) | > 100 µM (inactive) | > 100 µM (inactive) | > 100 µM (inactive) | > 100 µM (inactive) | > 100 µM (inactive) | > 100 µM (inactive) | > 100 µM (inactive) | > 100 µM | > 100 µM (inactive) | > 100 µM (inactive) | > 100 µM (inactive) | > 100 µM (inactive) | > 100 µM (inactive) | > 100 µM (inactive) | > 100 µM (inactive) | > 100 µM (inactive)
5 | CCCC1C(=O)CCc2c(OC)ccc(OC)c21 (stereo not given) |  | > 100 µM (inactive) | > 100 µM (inactive) | 99.8 µM (inactive) | 92.7 µM (inactive) | > 100 µM (inactive) | > 100 µM (inactive) | > 100 µM | 49.1 µM (inactive) | 73.8 µM (inactive) | 91.8 µM (inactive) | > 100 µM (inactive) | 57.5 µM (inactive) | > 100 µM (inactive) | > 100 µM (inactive) | 
6 | COc1cc([C@@H]2c3cc4c(cc3C(N)C3COC(=O)[C@@H]32)OCO4)cc(OC)c1O (stereo not given in full) |  | 0.146 µM (active) | 0.373 µM (active) | 0.17 µM (active) | 0.308 µM (active) | 0.304 µM (active) | 0.269 µM (active) | 0.324 µM | 0.266 µM (active) | 0.19 µM (active) | 0.399 µM (active) | 0.0624 µM (active) | 0.133 µM (active) | 0.163 µM (active) | 0.71 µM (active) | 
7 | CC1CCN(CCC(=O)CC(c2ccccc2)c2c(O)c3ccccc3oc2=O)CC1 (stereo not given) | > 100 µM (inactive) | > 100 µM (inactive) | > 100 µM (inactive) | > 100 µM (inactive) | > 100 µM (inactive) | > 100 µM (inactive) | > 100 µM (inactive) | > 100 µM | > 100 µM (inactive) | > 100 µM (inactive) | > 100 µM (inactive) | > 100 µM (inactive) | 82.8 µM (inactive) | > 100 µM (inactive) | > 100 µM (inactive) | 
8 | C=C[C@@]1(O)CCCC2=C(C(=O)OCC)CC[C@]21C | > 100 µM (inactive) | > 100 µM (inactive) | > 100 µM (inactive) | 47.5 µM (inactive) | > 100 µM (inactive) | > 100 µM (inactive) | 78.7 µM (inactive) | > 100 µM | 26.1 µM (inactive) | 36.1 µM (inactive) | > 100 µM (inactive) | > 100 µM (inactive) |  |  |  | > 100 µM (inactive)
9 | COC(=O)c1cc(-c2ccc(OC)c(OC)c2)oc1-c1ccc(OC)c(OC)c1 |  | 35.2 µM (inactive) | 26.6 µM (inactive) |  | 44.6 µM (inactive) | 48.5 µM (inactive) | 55.8 µM (inactive) | 47.2 µM | 32.7 µM (inactive) | 64.7 µM (inactive) | 49.7 µM (inactive) | 23.8 µM (inactive) | 33.5 µM (inactive) | 54.7 µM (inactive) | 62.5 µM (inactive) | 13.4 µM (inactive)
10 | COc1cccc2c1C(=O)c1c(O)c3c(c(O)c1C2=O)C[C@@](O)(C(C)=O)C[C@@H]3OC1CC([N+]([O-])(Cc2ccccc2)Cc2ccccc2)C(O)C(C)O1 (stereo not given in full) | 1.39 µM (inactive) | 1.22 µM (inactive) | 1.3 µM (inactive) | 2.13 µM (inactive) | 0.774 µM (active) | 0.71 µM (active) | 1.69 µM (inactive) | 1.32 µM | 0.191 µM (active) | 1.42 µM (inactive) |  | 1.19 µM (inactive) | 1.48 µM (inactive) | 1.14 µM (inactive) | 1.77 µM (inactive) | 1.52 µM (inactive)
11 | COc1cc2c(cc1O)[C@@]1(Cc3ccc(OC)c(OC)c3)CCC(=O)N1CC2 |  | > 100 µM (inactive) | > 100 µM (inactive) | > 100 µM (inactive) | > 100 µM (inactive) | > 100 µM (inactive) | > 100 µM (inactive) | > 100 µM | 52 µM (inactive) | > 100 µM (inactive) | > 100 µM (inactive) | > 100 µM (inactive) | > 100 µM (inactive) | > 100 µM (inactive) | > 100 µM (inactive) | 39.8 µM (inactive)
12 | CN1C(=O)C(=O)c2cc3c(c4c2c1cc1ccccc14)OCO3 [CEPHARADIONE A] | 22.6 µM (inactive) | 18.8 µM (inactive) | 40.7 µM (inactive) | 47.4 µM (inactive) | 24.1 µM (inactive) | 26.7 µM (inactive) | 26.7 µM (inactive) | 36.1 µM | 17.9 µM (inactive) | 38.5 µM (inactive) | 21.9 µM (inactive) | 38.7 µM (inactive) | 39.2 µM (inactive) | 31.3 µM (inactive) | 58.6 µM (inactive) | > 100 µM (inactive)
13 | O=C1CCCN(c2ccccc2)N1 | > 100 µM (inactive) | > 100 µM (inactive) |  | > 100 µM (inactive) | > 100 µM (inactive) | > 100 µM (inactive) | > 100 µM (inactive) | > 100 µM | > 100 µM (inactive) | > 100 µM (inactive) | > 100 µM (inactive) | > 100 µM (inactive) | > 100 µM (inactive) | > 100 µM (inactive) | > 100 µM (inactive) | 
14 | CC1(C)C(c2ccccc2)=NN(O)c2ccccc21 | > 100 µM (inactive) |  | > 100 µM (inactive) | > 100 µM (inactive) | > 100 µM (inactive) | > 100 µM (inactive) | > 100 µM (inactive) | > 100 µM | > 100 µM (inactive) | > 100 µM (inactive) | > 100 µM (inactive) | > 100 µM (inactive) | 86.1 µM (inactive) | > 100 µM (inactive) | > 100 µM (inactive) | 
15 | Cc1ccc(/C=C/C(=O)CCN(C)C)cc1 |  | 18.5 µM (inactive) | 27.9 µM (inactive) | 26.3 µM (inactive) | 15.9 µM (inactive) | 21.8 µM (inactive) | 21.5 µM (inactive) | 15.5 µM | 23.2 µM (inactive) | 21.1 µM (inactive) | 24.9 µM (inactive) | 33 µM (inactive) | 20.1 µM (inactive) | 13.9 µM (inactive) | 15.2 µM (inactive) | 19.5 µM (inactive)
16 | COc1cc(C)c(O)c(C(=O)O)c1 | > 100 µM (inactive) | > 100 µM (inactive) | > 100 µM (inactive) | > 100 µM (inactive) | > 100 µM (inactive) | > 100 µM (inactive) | > 100 µM (inactive) | > 100 µM | > 100 µM (inactive) |  | > 100 µM (inactive) | > 100 µM (inactive) | > 100 µM (inactive) | > 100 µM (inactive) | > 100 µM (inactive) | 
17 | Cc1cc(C)c(C2[C@H]3C(=O)N(c4ccc(Cc5ccc(N6C(=O)[C@@H]7ON(c8ccccc8)C(c8c(C)cc(C)cc8C)[C@@H]7C6=O)cc5)cc4)C(=O)[C@H]3ON2c2ccccc2)c(C)c1 (stereo not given in full) | > 100 µM (inactive) | > 100 µM (inactive) | > 100 µM (inactive) | > 100 µM (inactive) | > 100 µM (inactive) | > 100 µM (inactive) | > 100 µM (inactive) | > 100 µM | > 100 µM (inactive) | 46.3 µM (inactive) | > 100 µM (inactive) | > 100 µM (inactive) | > 100 µM (inactive) | 57.9 µM (inactive) | > 100 µM (inactive) | 
18 | N#C/C(=C\c1ccc(CP(=O)(O)O)cc1)C(N)=O | > 100 µM (inactive) | > 100 µM (inactive) | > 100 µM (inactive) | > 100 µM (inactive) | > 100 µM (inactive) | > 100 µM (inactive) | > 100 µM (inactive) | > 100 µM | > 100 µM (inactive) | > 100 µM (inactive) | > 100 µM (inactive) | > 100 µM (inactive) |  | > 100 µM (inactive) | > 100 µM (inactive) | > 100 µM (inactive)
19 | O=C1C(=Cc2ccc([N+](=O)[O-])o2)C(=O)N(CCc2ccccc2)S(=O)(=O)N1CCc1ccccc1 | 19.9 µM (inactive) | 17.1 µM (inactive) | 16.8 µM (inactive) | > 100 µM (inactive) | 28.9 µM (inactive) | > 100 µM (inactive) | 15.4 µM (inactive) | 16.3 µM | 19.2 µM (inactive) | 12.6 µM (inactive) | 21.8 µM (inactive) | > 100 µM (inactive) | 37.9 µM (inactive) |  | 16.3 µM (inactive) | 19.3 µM (inactive)
